Columns and labels:
Assay in all cases: relative viability (nuclei count vs DMSO), 5 days (fraction); higher = more cells survive
RAF265 + Pemetrexed = compound: Cn1c(Nc2ccc(C(F)(F)F)cc2)nc2cc(Oc3ccnc(-c4ncc(C(F)(F)F)[nH]4)c3)ccc21 [RAF265] + Nc1nc2[nH]cc(CCc3ccc(C(=O)N[C@@H](CCC(=O)O)C(=O)O)cc3)c2c(=O)[nH]1 [Pemetrexed] (partner 0.2 µM)
Method in brief: (§1)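 Relative viability divides the nuclei count in treated wells by that in vehicle wells. Lung cancer cell lines were seeded in 1536-well plates, dosed by pin tool the next day, and fixed and stained after 5 days in one step with final 0.05% Triton X-100, 1% formaldehyde and 1 ug/ml Hoechst. Dosing was a single drug or a fixed anchor-drug dose plus five library-drug doses (not always all listed) in √10 steps, and values are medians of duplicate plates imaged at 4×.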

RAF265 + Navitoclax = compound: Cn1c(Nc2ccc(C(F)(F)F)cc2)nc2cc(Oc3ccnc(-c4ncc(C(F)(F)F)[nH]4)c3)ccc21 [RAF265] + CC1(C)CCC(c2ccc(Cl)cc2)=C(CN2CCN(c3ccc(C(=O)NS(=O)(=O)c4ccc(N[C@H](CCN5CCOCC5)CSc5ccccc5)c(S(=O)(=O)C(F)(F)F)c4)cc3)CC2)C1 [Navitoclax] (partner 0.5 µM)
Method in brief: as §1

RAF265 + Dasatinib = compound: Cn1c(Nc2ccc(C(F)(F)F)cc2)nc2cc(Oc3ccnc(-c4ncc(C(F)(F)F)[nH]4)c3)ccc21 [RAF265] + Cc1nc(Nc2ncc(C(=O)Nc3c(C)cccc3Cl)s2)cc(N2CCN(CCO)CC2)n1 [Dasatinib] (partner 0.075 µM)
Method in brief: as §1

RAF265 + Foretinib = compound: Cn1c(Nc2ccc(C(F)(F)F)cc2)nc2cc(Oc3ccnc(-c4ncc(C(F)(F)F)[nH]4)c3)ccc21 [RAF265] + COc1cc2c(Oc3ccc(NC(=O)C4(C(=O)Nc5ccc(F)cc5)CC4)cc3F)ccnc2cc1OCCCN1CCOCC1 [Foretinib] (partner 0.25 µM)
Method in brief: as §1

| Cell Line | relative viability (RAF265 + Pemetrexed; first compound 0.01 µM) | relative viability (RAF265 + Pemetrexed; first compound 0.03162 µM) | relative viability (RAF265 + Pemetrexed; first compound 0.1 µM) | relative viability (RAF265 + Pemetrexed; first compound 0.3162 µM) | relative viability (RAF265 + Pemetrexed; first compound 1 µM) | relative viability (RAF265 + Navitoclax; first compound 0.01 µM) | relative viability (RAF265 + Navitoclax; first compound 0.03162 µM) | relative viability (RAF265 + Navitoclax; first compound 0.1 µM) | relative viability (RAF265 + Navitoclax; first compound 0.3162 µM) | relative viability (RAF265 + Navitoclax; first compound 1 µM) | relative viability (RAF265 + Dasatinib; first compound 0.01 µM) | relative viability (RAF265 + Dasatinib; first compound 0.03162 µM) | relative viability (RAF265 + Dasatinib; first compound 0.1 µM) | relative viability (RAF265 + Dasatinib; first compound 0.3162 µM) | relative viability (RAF265 + Dasatinib; first compound 1 µM) | relative viability (RAF265 + Foretinib; first compound 0.01 µM) | relative viability (RAF265 + Foretinib; first compound 0.03162 µM) | relative viability (RAF265 + Foretinib; first compound 0.1 µM) | relative viability (RAF265 + Foretinib; first compound 0.3162 µM) | relative viability (RAF265 + Foretinib; first compound 1 µM) |
| --- | --- | --- | --- | --- | --- | --- | --- | --- | --- | --- | --- | --- | --- | --- | --- | --- | --- | --- | --- | --- |
| HCC-78 | 0.906 | 0.844 | 0.884 | 0.881 | 0.898 | 0.898 | 0.901 | 0.912 | 0.726 | 0.731 | 0.371 | 0.482 | 0.457 | 0.387 | 0.34 | 0.512 | 0.587 | 0.583 | 0.617 | 0.526 |
| HCC-366 | 0.153 | 0.146 | 0.185 | 0.208 | 0.132 | 1.09 | 1.15 | 1.13 | 1.09 | 0.776 | 0.724 | 0.627 | 0.664 | 0.583 | 0.511 | 0.99 | 0.841 | 0.9 | 0.996 | 0.914 |
| HCC-827 | 0.281 | 0.24 | 0.214 |  | 0.278 | 1.06 | 0.987 | 1.08 |  | 0.78 | 0.277 | 0.259 | 0.422 |  | 0.234 | 0.986 | 0.971 | 1.06 |  | 0.729 |
| HOP-62 | 0.261 | 0.306 | 0.267 | 0.246 | 0.245 | 0.942 | 0.963 | 0.921 | 0.995 | 0.951 | 0.747 | 0.618 | 0.647 | 0.691 | 0.504 | 1.14 | 0.979 | 0.973 | 1.04 | 0.852 |
| IA-LM |  |  |  |  |  | 0.73 |  | 0.663 | 0.597 | 0.609 |  |  |  |  |  | 1.21 | 0.933 | 1 | 0.946 | 0.769 |
| LC-2-ad | 0.275 | 0.3 | 0.288 | 0.292 | 0.258 | 0.527 | 0.283 | 0.311 | 0.162 | 0.115 | 0.57 | 0.691 | 0.386 | 0.27 | 0.196 | 1.22 | 0.921 | 0.94 | 0.863 | 0.645 |
| LCLC-97TM1 | 0.145 | 0.155 | 0.149 | 0.153 | 0.128 | 0.512 | 0.356 | 0.461 | 0.191 | 0.135 | 0.826 | 0.826 | 0.66 | 0.852 | 0.442 | 0.993 | 0.811 | 0.967 | 0.811 | 0.448 |
| LCLC-103H | 0.496 | 0.423 | 0.476 | 0.459 | 0.429 |  |  |  |  |  | 0.431 | 0.467 | 0.478 | 0.386 | 0.338 | 0.802 | 0.587 | 0.645 | 0.504 | 0.39 |
| LK-2 | 0.237 | 0.352 | 0.188 | 0.244 | 0.215 | 0.777 | 0.791 | 0.832 | 0.633 | 0.57 | 0.272 | 0.295 | 0.291 | 0.394 | 0.213 | 1.07 | 1.13 | 0.952 | 1.05 | 0.862 |
| NCI-H358 | 0.159 | 0.165 | 0.151 | 0.149 | 0.147 |  |  |  |  |  | 0.179 | 0.217 | 0.16 | 0.171 | 0.0873 | 0.623 | 0.641 | 0.448 | 0.239 | 0.215 |
| NCI-H522 | 0.922 | 1.15 | 1.09 | 1.13 | 1 |  |  |  |  |  | 0.847 | 0.9 | 0.811 | 0.919 | 0.764 |  |  |  |  |  |
| NCI-H650 | 0.96 | 0.76 | 0.734 | 0.573 | 0.505 |  |  |  |  |  | 0.464 | 0.429 | 0.369 | 0.265 | 0.259 | 1.1 | 0.965 | 0.974 | 0.814 | 0.484 |
| NCI-H661 | 0.941 | 0.873 | 0.835 | 0.701 | 0.615 |  |  |  |  |  | 0.925 | 0.771 | 0.546 | 0.598 | 0.42 | 1.05 | 0.944 | 0.685 | 0.636 | 0.521 |
| NCI-H727 |  |  |  |  |  | 0.531 | 0.539 | 0.512 | 0.363 | 0.229 | 0.57 | 0.427 | 0.352 | 0.279 | 0.23 | 0.879 | 0.895 | 0.98 | 0.744 | 0.454 |
| NCI-H1299 |  |  |  |  |  | 1.03 | 0.988 | 1.06 | 0.989 | 0.738 |  |  |  |  |  | 1.12 | 0.863 | 1.08 | 1.07 | 0.749 |
| NCI-H1563 | 0.943 | 0.886 | 0.77 | 0.779 | 0.699 |  |  |  |  |  | 0.469 | 0.482 | 0.508 | 0.45 | 0.441 | 1.05 | 1 | 0.984 | 0.989 | 0.935 |
| NCI-H1623 |  |  |  |  |  |  |  |  |  |  | 0.558 | 0.496 | 0.645 |  | 0.313 | 0.977 | 0.867 | 0.983 | 0.39 | 0.562 |
| NCI-H1648 | 0.758 | 0.66 | 0.771 | 1.02 | 0.65 |  |  |  |  |  |  |  |  |  |  |  |  |  |  |  |
| NCI-H1703 |  |  |  |  |  | 1.16 | 0.95 | 0.848 | 0.576 | 0.283 |  |  |  |  |  | 0.335 | 0.318 | 0.351 | 0.357 | 0.253 |
| NCI-H1792 | 0.808 | 0.517 | 0.539 | 0.0889 | 0.118 | 0.637 | 0.597 | 0.641 | 0.541 | 0.459 | 0.848 | 0.83 | 0.759 | 0.575 | 0.293 |  |  |  |  |  |
| NCI-H2342 | 0.809 | 0.818 | 0.782 | 0.803 | 0.788 |  |  |  |  |  | 0.319 | 0.349 | 0.298 | 0.276 | 0.288 | 1.11 | 1.06 | 1.12 | 0.992 | 0.968 |
| SW 900 | 0.486 | 0.512 | 0.512 | 0.488 | 0.254 |  |  |  |  |  | 0.595 | 0.548 | 0.552 | 0.297 | 0.272 | 1.01 | 0.835 | 0.748 | 0.769 | 0.546 |

From the supplement of paper PMC10307832
